Test results as given in patent publication US20160120898A1, “METHODS AND COMPOSITIONS FOR THE DISRUPTION OF BIOFILMS AND TREATMENT OF DISORDERS CHARACTERIZED BY THE PRESENCE OF BIOFILMS” (BREATHE EASY LIMITED, priority 2013, published 2016).

How the values were obtained:
[1] = Sputum pourability (viscosity) test; design: key to pourability: “0”=no change; “+++>” dissolved
Procedure: The ability of sodium citrate solution to decrease the viscosity of sputum samples was examined as follows.
Three different sputum samples were employed: sample 1 was of a runny consistency; sample 2 was of an intermediate consistency; and sample 3 was of a heavy consistency. 100 ul samples were measured and transferred to assay tubes in duplicate (except for sample 1 which was in short supply) and placed in a 37° C. preheated Thermomixer. 10 ul of saline (0.9% NaCl) was used as a negative control. 5 ul, 10 ul, 50 ul or 100 ul of 55 mM aqueous sodium citrate solution was added per tube and mixed (400 rpm). Each tube was checked for pourability, or viscosity, at 30 sec, 90 sec and 150 sec by observing the movement of the sputum sample along the wall of the tube. The pourability of sample 3 was also checked at 5 minutes. The pourability was graded as follows: “0”=no change to “+++>” dissolved. The results of the study are shown below in Table 2 for samples 1-3, and in FIG. 1.

[2] = Safety and toxicity of nebulized sodium citrate in healthy volunteers (FEV1, FVC); assay type: in vivo, human; design: FEV1 / FVC: unit not given here; conditions: for FEV1 / FVC: 5 minutes after treatment
Procedure: The safety and toxicity of aqueous sodium citrate solution was examined as follows. Treatment solutions were prepared by diluting 0 mM, 11 mM and 22 mM sodium citrate in 2 ml of water. The solutions were nebulized and administered to three healthy volunteers in successive treatments, with ascending sodium citrate dosage volumes and a 5 min break between each treatment. The forced expiratory volume in 1 sec (FEV1) and forced vital capacity (FVC) were recorded 5 minutes after each treatment.

[3] = average found with alpha dornase; cited from earlier work

## O=C([O-])CC(O)(CC(=O)[O-])C(=O)[O-].[Na+].[Na+].[Na+] [sodium citrate]
[1]; 5 ul added to 100 ul sputum, sample 1 (runny), 30 sec
  pourability: +++>
[1]; 5 ul added to 100 ul sputum, sample 1 (runny), 90 sec
  pourability: +++>
[1]; 5 ul added to 100 ul sputum, sample 1 (runny), 150 sec
  pourability: +++>
[1]; 5 ul added to 100 ul sputum, sample 1 (runny), time 0
  pourability: +++>
[1]; 5 ul added to 100 ul sputum, sample 2 (intermediate), 30 sec
  pourability: 0
[1]; 5 ul added to 100 ul sputum, sample 2 (intermediate), time 0
  pourability: 0
[1]; 5 ul added to 100 ul sputum, sample 3 (heavy), 30 sec
  pourability: 0
[1]; 5 ul added to 100 ul sputum, sample 3 (heavy), 5 min
  pourability: +>
[1]; 5 ul added to 100 ul sputum, sample 3 (heavy), time 0
  pourability: 0
[1]; 10 ul added to 100 ul sputum, sample 1 (runny), 30 sec
  pourability: +++>
[1]; 10 ul added to 100 ul sputum, sample 1 (runny), 90 sec
  pourability: +++>
[1]; 10 ul added to 100 ul sputum, sample 1 (runny), 150 sec
  pourability: +++>
[1]; 10 ul added to 100 ul sputum, sample 1 (runny), time 0
  pourability: +++>
[1]; 10 ul added to 100 ul sputum, sample 2 (intermediate), 30 sec
  pourability: 0
[1]; 10 ul added to 100 ul sputum, sample 2 (intermediate), 150 sec
  pourability: +>
[1]; 10 ul added to 100 ul sputum, sample 2 (intermediate), time 0
  pourability: 0
[1]; 10 ul added to 100 ul sputum, sample 3 (heavy), 30 sec
  pourability: 0
[1]; 10 ul added to 100 ul sputum, sample 3 (heavy), 5 min
  pourability: ++>
[1]; 10 ul added to 100 ul sputum, sample 3 (heavy), time 0
  pourability: 0
[1]; 50 ul added to 100 ul sputum, sample 1 (runny), 30 sec
  pourability: +++>
[1]; 50 ul added to 100 ul sputum, sample 1 (runny), 90 sec
  pourability: +++>
[1]; 50 ul added to 100 ul sputum, sample 1 (runny), 150 sec
  pourability: +++>
[1]; 50 ul added to 100 ul sputum, sample 1 (runny), time 0
  pourability: +++>
[1]; 50 ul added to 100 ul sputum, sample 2 (intermediate), 150 sec
  pourability: ++>
[1]; 50 ul added to 100 ul sputum, sample 2 (intermediate), time 0
  pourability: 0
[1]; 50 ul added to 100 ul sputum, sample 3 (heavy), 90 sec
  pourability: +>
[1]; 50 ul added to 100 ul sputum, sample 3 (heavy), 150 sec
  pourability: +>
[1]; 50 ul added to 100 ul sputum, sample 3 (heavy), 5 min
  pourability: +++>
[1]; 50 ul added to 100 ul sputum, sample 3 (heavy), time 0
  pourability: 0
[1]; 100 ul added to 100 ul sputum, sample 2 (intermediate), 90 sec
  pourability: ++>
[1]; 100 ul added to 100 ul sputum, sample 2 (intermediate), 150 sec
  pourability: +++>
[1]; 100 ul added to 100 ul sputum, sample 2 (intermediate), time 0
  pourability: 0
[1]; 100 ul added to 100 ul sputum, sample 3 (heavy), 5 min
  pourability: +++>
[1]; 100 ul added to 100 ul sputum, sample 3 (heavy), time 0
  pourability: 0
[1]; following incubation
  time of maximal effectiveness in reducing sputum viscosity: 5 min
[2]; Volunteer 1, 11 mM nebulized
  FEV1: 3.90
  FVC: 4.66
[2]; Volunteer 1, 22 mM nebulized
  FEV1: 3.96
  FVC: 4.82
[2]; Volunteer 2, 11 mM nebulized
  FEV1: 2.39
  FVC: 3.48
[2]; Volunteer 2, 22 mM nebulized
  FEV1: 2.28
  FVC: 3.40
[2]; Volunteer 3, 22 mM nebulized
  FEV1: 2.79
  FVC: 2.84
[2]; nebulization in three healthy volunteers
  irritation or other negative side effects: did not result in any irritation or other negative side effects

B1: alpha dornase: Pulmozyme® (dornase alfa or rhDNase), approved for treatment of CF (protein, UniProt P24855 23-282, looked up)
Deoxyribonuclease-1: LKIAAFNIQTFGETKMSNATLVSYIVQILSRYDIALVQEVRDSHLTAVGKLLDNLNQDAPDTYHYVVSEPLGRNSYKERYLFVYRPDQVSAVDSYYYDDGCEPCGNDTFNREPAIVRFFSRFTEVREFAIVPLHAAPGDAVAEIDALYDVYLDVQEKWGLEDVMLMGDFNAGCSYVRPSQWSSIRLWTSPTFQWLIPDSADTTATPTHCAYDRIVVAGMLLRGAVVPDSALPFNFQAAYGLSDQLAQAISDHYPVEVMLK
modifications: dornase alfa
notes: Pulmozyme® (dornase alfa or rhDNase), approved for treatment of CF
[3]
  improvement in lung function (FEV1), average: 9%
